From patent US11266626B2, “Reduction of ER-MAM-localized APP-C99 and methods of treating alzheimer's disease” (THE TRUSTEES OF COLUMBIA UNIVERSITY IN THE CITY OF NEW YORK, priority 2015, dated 2022) come the findings set out here.

In test [1] the test system is mitochondrial respiratory supercomplexes. The experiment in a line: Supercomplex analysis (blue-native gels, in-gel activity and western blot). The format is cell-based, mouse. Here is the method: Analysis and quantification of mitochondrial respiratory complexes by western blot and enzymatic in-gel activity were carried out as previously reported (Acin-Perez et al., 2008)
Analysis and quantification of mitochondrial respiratory complexes by Western blot and enzymatic in-gel activity were carried out as described (Acin-Perez et al, 2008).
In general terms: In western blotting, separated proteins are transferred to a membrane and probed.

Test [2] relates to acid (aSMase) and neutral (nSMase) sphingomyelinases. Put plainly: Analysis of sphingomyelinase activity. The format is cell-based, human. Conditions: SH-SY5Y cells; DAPT 10 μM. The procedure: One hundred μg of protein were assayed in 100 mM of the appropriate buffer (Tris/glycine for pH 7.0-9.0 and sodium acetate for pH 4.0-5.0), 1.55 mM Triton X-100, 0.025% BSA, 1 mM MgCl2, and 400 μM bovine brain sphingomyelin spiked with 22000 dpm of [3H]-bovine sphingomyelin ([…]). Reactions were carried out in borosilicate glass culture tubes at 37° C., overnight, followed by quenching with 1.2 ml of ice-cold 10% trichloroacetic acid, incubation at 4° C. for 30 min, and centrifugation at 2000 rpm at 4° C. for 20 min. One ml of supernatant was transferred to clean tubes, 1 ml of ether was added, the mixture vortexed, and centrifuged at 2000 rpm for 5 min. Eight hundred μl of the bottom phase was transferred to scintillation vials, 5 ml of Scintiverse BD (Fisher Scientific, Fair Lawn, N.J.) was added, and samples were counted. […]
Reactions were carried out in borosilicate glass culture tubes at 37° C., overnight, followed by quenching with 1.2 ml of ice-cold 10% trichloroacetic acid, incubation at 4° C. for 30 min, and centrifugation at 2000 rpm at 4° C. for 20 min. […] Eight hundred μl of the bottom phase was transferred to scintillation vials, 5 ml of Scintiverse BD (Fisher Scientific, Fair Lawn, N.J.) was added, and samples were counted. […]

For test [3], the system named is WT MEFs and presenilin-mutant (PS-DKO) cells. The experiment in a line: Filipin staining of free cholesterol. The format is cell-based, mouse. The settings on record: WT MEFs treated with DAPT, then BACE1 inhibitor. Here is the method: Cells were washed in PBS and fixed in 3% paraformaldehyde at room temperature for 1 h. After washing in PBS three times, samples were incubated in 1.5 mg/ml glycine in 1×PBS to quench the paraformaldehyde and then incubated in 0.05 mg/ml of filipin in PBS/10% FBS for 2 h at room temperature. Free cholesterol signal was visualized in by microscopy and quantified by ImageJ.

In test [4] the test system is WT and PS-DKO cells. Put plainly: Mitochondrial content and biogenesis (VDAC, TOM20 western blot; PGC-1α qRT-PCR). The format is cell-based, mouse. Here is the method:
Total RNA was extracted from MEFs using TRIzol® Reagent (Invitrogen 15596-018) according to the manufacture's instructions, and was quantified by NanoDrop2000 (Thermo Scientific). […] of total RNA was used to obtain cDNA by RT-PCR using a High Capacity cDNA Reverse Transcription Kit (Applied Biosystems; PN 4368813, 4374966). Real-Time PCR was performed in triplicate in a StepOnePlus™ Real-Time PCR System (Applied Biosystems; 4376600). The expression of each gene under study was analyzed using specific predesigned TaqMan Probes (PGC-1α, ppargc1 Mm01208835_m1; aSMase, smpd1 Mm00488319_g1; nSMase, smpd3 Mm00491359_m1). The expression of each gene under study was analyzed using specific predesigned TaqMan Probes and normalizing against Gapdh expression (Applied Biosystems, 4352339E) as an internal standard.
Total RNA was extracted from MEFs using TRIzol® Reagent (Invitrogen 15596-018) according to the manufacture's instructions, and was quantified by NanoDrop2000 (Thermo Scientific). […] The expression of each gene under study was analyzed using specific predesigned TaqMan Probes (PGC-1α, ppargcl Mm01208835_ml; aSMase, smpd1 Mm00488319_g1; nSMase, smpd3 Mm00491359_ml). The forward and reverse primers for COXI quantification were, respectively, ([…] (SEQ ID NO: 5); […] (SEQ ID NO: 6)). […]

“Also recorded” adds a separate entry of the source.

Regarding `C[C@H](NC(=O)Cc1cc(F)cc(F)c1)C(=O)N[C@H](C(=O)OC(C)(C)C)c1ccccc1` [DAPT], the “activity of supercomplexes I+III+IV, I+III and III+IV” value in test [1] (mitochondria from DAPT-treated WT cells) is listed as “decrease in the activity of supercomplexes”. In test [2], the SMase activity entry was “significantly increased SMase activities; also recorded: increase in SMase activity”. Also, the “distribution of free cholesterol (filipin staining punctae)” value in test [3] is listed as “this phenotype was recapitulated”. In addition, in test [4], the “mitochondrial content / biogenesis (VDAC, TOM20, PGC-1α mRNA)” value is listed as “do not affect mitochondrial biogenesis”.
On to `C[C@@H](NC(=O)c1cc(C(=O)N[C@@H](Cc2ccccc2)[C@H](O)CNC2CC2)cc(N(C)S(C)(=O)=O)c1)c1ccccc1` [BI, β-secretase inhibitor IV], for which, in test [1] (mitochondria from PS-DKO cells incubated with BI or myriocin), the “activity of supercomplexes I+III+IV, I+III and III+IV (in-gel complex I and IV activity)” value was “rescued”. In addition, the “assembly of respiratory supercomplexes (blue-native PAGE western blot)” value in test [1] (mitochondria from PS-DKO cells, anti-complex I and III antibodies) is “increases the assembly of supercomplexes I+III and I+III+IV”. The “distribution of free cholesterol (filipin staining punctae)” value in test [3] is recorded as “reverse it”. Besides, the “mitochondrial content / biogenesis (VDAC, TOM20, PGC-1α mRNA)” value in test [4] was “without changes in mitochondria; also recorded: do not affect mitochondrial biogenesis”.
